Measured values from PubChem BioAssay (NCI).
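In this assay, cells in 96-well plates receive the compound at five concentrations for 48 hours. Endpoints are linearly interpolated between the surrounding concentrations. GI50 = concentration required for 50% inhibition of growth. At the TGI there is no net growth.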

What was measured:
Test in all cases: NCI tumour cell line growth inhibition, 48 h; in the data active = GI50 below about 0.43 µM; inactive = the rest
[1] = system: KM12 colon
[2] = system: SK-MEL-5 melanoma
[3] = system: MDA-MB-435
[4] = system: PC-3 prostate
[5] = system: MALME-3M melanoma
[6] = system: EKVX NSCLC
[7] = system: SR leukemia
[8] = system: A498 renal
[9] = system: HCC-2998 colon
[10] = system: IGROV1 ovarian
[11] = system: COLO 205 colon
[12] = system: A549 NSCLC
[13] = system: OVCAR-3 ovarian
[14] = system: SF-295 CNS
[15] = system: RPMI-8226 leukemia
[16] = system: T-47D breast
[17] = system: UO-31 renal
[18] = system: HS 578T breast
[19] = system: OVCAR-4 ovarian
[20] = system: NCI-H23 lung
[21] = system: SN12C renal
[22] = system: M14 melanoma
[23] = system: SK-OV-3 ovarian
[24] = system: NCI-H226 lung
[25] = system: MOLT-4 leukemia
[26] = system: HOP-92 NSCLC
[27] = system: HT29 colon
[28] = system: SF-268 CNS
[29] = system: ACHN renal
[30] = system: MCF7 breast
[31] = system: CCRF-CEM leukemia
[32] = system: TK-10 renal
[33] = system: SW-620 colon
[34] = system: OVCAR-8 ovarian
[35] = system: HCT-116 colon
[36] = system: MDA-MB-231 breast
[37] = system: K-562 leukemia
[38] = system: UACC-257 melanoma
[39] = system: NCI/ADR-RES ovarian
[40] = system: OVCAR-5 ovarian
[41] = system: RXF 393 renal
[42] = system: DU-145 prostate
[43] = system: 786-0 renal
[44] = system: SNB-19 CNS
[45] = system: CAKI-1 renal
[46] = system: NCI-H460 lung
[47] = system: SF-539 CNS
[48] = system: NCI-H522 lung
[49] = system: HOP-62 NSCLC
[50] = system: SK-MEL-28 melanoma
[51] = system: UACC-62 melanoma
[52] = system: SK-MEL-2 melanoma
[53] = system: LOX IMVI melanoma
[54] = system: U251 CNS
[55] = system: SNB-75 CNS
[56] = system: HCT-15 colon
[57] = system: BT-549 breast
[58] = system: HL-60(TB) leukemia

CC(=O)NC(CCCOC(C)=O)C(=O)NC(CCCOC(C)=O)C(=O)NC(CCCOC(C)=O)C(=O)NC(Cc1ccc([N+](=O)[O-])cc1)C(=O)NCC(=O)OCc1ccccc1 (stereo unspecified)
> 100 µM: TGI [1] | TGI [2] | TGI [3] | TGI [4] | TGI [5] | TGI [6] | TGI [7] | TGI [8] | TGI [9] | TGI [10] | TGI [11] | TGI [12] | TGI [13] | TGI [14] | TGI [15] | TGI [16] | TGI [17] | TGI [18] | TGI [19] | TGI [20] | TGI [21] | TGI [22] | TGI [23] | TGI [24] | TGI [25] | TGI [26] | TGI [27] | TGI [28] | TGI [29] | TGI [30] | TGI [31] | TGI [32] | TGI [33] | TGI [34] | TGI [35] | TGI [36] | TGI [37] | TGI [38] | TGI [39] | TGI [40] | TGI [41] | TGI [42] | TGI [43] | TGI [44] | TGI [45] | TGI [46] | TGI [47] | TGI [48] | TGI [49] | TGI [50] | TGI [51] | TGI [52] | TGI [53] | TGI [54] | TGI [55] | TGI [56]

Cc1csc(-c2ccc3c(c2)COC3(CCCN(C)C)c2ccc(F)cc2)c1 (stereo unspecified)
3.48 µM: TGI [6]
3.08 µM: TGI [3]
3.11 µM: TGI [19]
4.24 µM: TGI [12]
inactive: GI50 [1] 1.95 µM | GI50 [2] 1.82 µM | GI50 [3] 1.69 µM | GI50 [4] 1.81 µM | GI50 [5] 1.74 µM | GI50 [6] 1.77 µM | GI50 [57] 1.6 µM | GI50 [9] 1.79 µM | GI50 [10] 1.67 µM | GI50 [11] 2.59 µM | GI50 [12] 2.02 µM | GI50 [13] 1.81 µM | GI50 [14] 1.84 µM | GI50 [15] 2.2 µM | GI50 [16] 1.85 µM | GI50 [17] 1.46 µM | GI50 [18] 1.93 µM | GI50 [19] 1.67 µM | GI50 [20] 1.83 µM | GI50 [21] 1.79 µM | GI50 [22] 1.81 µM | GI50 [23] 1.87 µM | GI50 [58] 1.97 µM | GI50 [24] 1.92 µM | GI50 [25] 2.55 µM | GI50 [26] 1.6 µM | GI50 [28] 1.68 µM | GI50 [29] 1.74 µM | GI50 [30] 1.7 µM | GI50 [31] 2.21 µM | GI50 [32] 1.83 µM | GI50 [33] 1.8 µM | GI50 [34] 2.35 µM | GI50 [35] 1.86 µM | GI50 [36] 1.79 µM | GI50 [37] 2.29 µM | GI50 [38] 1.81 µM | GI50 [39] 1.81 µM | GI50 [40] 1.63 µM | GI50 [41] 1.63 µM | GI50 [42] 1.91 µM | GI50 [43] 1.8 µM | GI50 [44] 1.75 µM | GI50 [45] 1.62 µM | GI50 [46] 1.9 µM | GI50 [47] 1.8 µM | GI50 [48] 2.06 µM | GI50 [49] 1.67 µM | GI50 [50] 1.77 µM | GI50 [51] 1.78 µM | GI50 [52] 1.96 µM | GI50 [53] 1.77 µM | GI50 [54] 1.85 µM | GI50 [55] 1.2 µM | GI50 [56] 1.85 µM
3.36 µM: TGI [51]
3.01 µM: TGI [45]
4.27 µM: TGI [58]
3.59 µM: TGI [22]
3.38 µM: TGI [30]
3.39 µM: TGI [43]
6.69 µM: TGI [25]
3.44 µM: TGI [20] | TGI [39]
3.2 µM: TGI [57]
3.32 µM: TGI [10]
3.17 µM: TGI [26]
3.04 µM: TGI [41]
3.72 µM: TGI [32]
3.31 µM: TGI [44]
3.26 µM: TGI [2] | TGI [28]
3.3 µM: TGI [9] | TGI [50]
3.42 µM: TGI [49]
4.62 µM: TGI [16]
4.76 µM: TGI [15]
4.44 µM: TGI [18]
3.24 µM: TGI [53]
3.14 µM: TGI [29]
5.69 µM: TGI [34]
5.64 µM: TGI [11]
3.34 µM: TGI [5] | TGI [36]
3.56 µM: TGI [42]
3.76 µM: TGI [24] | TGI [38] | TGI [54]
3.05 µM: TGI [40]
3.45 µM: TGI [4]
3.69 µM: TGI [23]
5.18 µM: TGI [37]
3.54 µM: TGI [35]
5.35 µM: TGI [31]
3.5 µM: TGI [46]
3.51 µM: TGI [33] | TGI [56]
3.75 µM: TGI [1]
3.37 µM: TGI [13]
2.79 µM: TGI [17]
3.22 µM: TGI [47]
3.4 µM: TGI [21]
3.95 µM: TGI [52]
3.52 µM: TGI [14]
2.61 µM: TGI [55]
4.31 µM: TGI [48]
